Earlier results on 2 compounds are cited in patent USRE31980E, “Olefinic derivatives of amino acids” (Merrell Toraude et Compagnie, priority 1983, dated 1985).

Molecules are shown by their SMILES.

Series [1] relates to γ-aminobutyric acid transaminase.
The subject of series [2] is brain level of γ-aminobutyric acid. The settings on record: in vivo.

On to `CCCC(CCC)C(=O)O` [n-dipropylacetate], for which the “inhibition of γ-aminobutyric acid transaminase (kind of inhibition), literature” value in series [1] was “competitively inhibiting”. In addition, the “duration of the reversible effect (elevated brain levels of γ-aminobutyric acid), literature” value in series [2] is “about 2 hours”.

In the case of `NCC#CC(=O)O` [4-aminotetrolic acid], the “inhibition of γ-aminobutyric acid transaminase (kind of inhibition), literature” value in series [1] was “competitive reversible inhibitor”.
